Experimental data: PubChem BioAssay (NCI)
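Interpolation was linear, between the two tested concentrations surrounding the appropriate level; five concentrations were tested over 48 hours in 96-well plates. Here, GI50 denotes the concentration required for 50% inhibition of growth. TGI: total growth inhibition.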

Columns and labels:
Assay in all cases: growth of human tumour cells (NCI), 48 h
[1] = test system: M14 melanoma
[2] = test system: SW-620 colon
[3] = test system: NCI-H522 lung
[4] = test system: T-47D breast
[5] = test system: CCRF-CEM leukemia
[6] = test system: RPMI-8226 leukemia
[7] = test system: HCT-116 colon
[8] = test system: ACHN renal
[9] = test system: IGROV1 ovarian
[10] = test system: OVCAR-5 ovarian
[11] = test system: MDA-MB-231 breast
[12] = test system: NCI-H23 lung
[13] = test system: OVCAR-8 ovarian
[14] = test system: SK-MEL-2 melanoma
[15] = test system: 786-0 renal
[16] = test system: UO-31 renal
[17] = test system: HL-60(TB) leukemia
[18] = test system: HOP-62 NSCLC
[19] = test system: MALME-3M melanoma
[20] = test system: SNB-19 CNS
[21] = test system: A549 NSCLC
[22] = test system: MDA-MB-435
[23] = test system: TK-10 renal
[24] = test system: U251 CNS
[25] = test system: OVCAR-3 ovarian
[26] = test system: SK-OV-3 ovarian
[27] = test system: PC-3 prostate
[28] = test system: HOP-92 NSCLC
[29] = test system: SF-539 CNS
[30] = test system: RXF 393 renal
[31] = test system: NCI-H460 lung
[32] = test system: SK-MEL-28 melanoma
[33] = test system: A498 renal
[34] = test system: SK-MEL-5 melanoma
[35] = test system: NCI/ADR-RES ovarian
[36] = test system: LOX IMVI melanoma
[37] = test system: K-562 leukemia
[38] = test system: DU-145 prostate
[39] = test system: SNB-75 CNS
[40] = test system: UACC-257 melanoma
[41] = test system: COLO 205 colon
[42] = test system: HT29 colon
[43] = test system: HCC-2998 colon
[44] = test system: NCI-H226 lung
[45] = test system: HS 578T breast
[46] = test system: MOLT-4 leukemia
[47] = test system: CAKI-1 renal
[48] = test system: UACC-62 melanoma
[49] = test system: HCT-15 colon
[50] = test system: SN12C renal
[51] = test system: OVCAR-4 ovarian
[52] = test system: SF-268 CNS
[53] = test system: BT-549 breast
[54] = test system: KM12 colon
[55] = test system: MCF7 breast
[56] = test system: EKVX NSCLC
[57] = test system: SF-295 CNS

O=c1c2ccc3cccc4c(=O)c5ccc6cccc1c6c5-c2c34 showed a GI50 [1] greater than 50 µM, a TGI [1] greater than 50 µM and a GI50 [2] greater than 50 µM. For the same molecule, the TGI [2] was greater than 50 µM, the GI50 [3] was greater than 50 µM and the TGI [3] was greater than 50 µM. The GI50 [4] was greater than 50 µM, the TGI [4] was greater than 50 µM and the GI50 [5] was greater than 50 µM. The TGI [5] was greater than 50 µM, the GI50 [6] was greater than 50 µM and the TGI [6] was greater than 50 µM. The GI50 [7] was greater than 50 µM, the TGI [7] was greater than 50 µM and the GI50 [8] was greater than 50 µM. The TGI [8] was greater than 50 µM, the GI50 [9] was greater than 50 µM and the TGI [9] was greater than 50 µM. For the same molecule, the GI50 [10] was greater than 50 µM, the TGI [10] was greater than 50 µM and the GI50 [11] was greater than 50 µM. The TGI [11] was greater than 50 µM, the GI50 [12] was greater than 50 µM and the TGI [12] was greater than 50 µM. For the same molecule, the GI50 [13] was greater than 50 µM, the TGI [13] was greater than 50 µM and the GI50 [14] was greater than 50 µM. It also gave a TGI [14] greater than 50 µM, a GI50 [15] greater than 50 µM and a TGI [15] greater than 50 µM. The GI50 [16] was greater than 50 µM, the TGI [16] was greater than 50 µM and the GI50 [17] was greater than 50 µM. The TGI [17] was greater than 50 µM, the GI50 [18] was greater than 50 µM and the TGI [18] was greater than 50 µM. The GI50 [19] was greater than 50 µM, the TGI [19] was greater than 50 µM and the GI50 [20] was greater than 50 µM. For the same molecule, the TGI [20] was greater than 50 µM, the GI50 [21] was greater than 50 µM and the TGI [21] was greater than 50 µM. It also gave a GI50 [22] greater than 50 µM, a TGI [22] greater than 50 µM and a GI50 [23] greater than 50 µM. The TGI [23] was greater than 50 µM, the GI50 [24] was greater than 50 µM and the TGI [24] was greater than 50 µM. The GI50 [25] was greater than 50 µM, the TGI [25] was greater than 50 µM and the GI50 [26] was greater than 50 µM. For the same molecule, the TGI [26] was greater than 50 µM, the GI50 [27] was greater than 50 µM and the TGI [27] was greater than 50 µM. The GI50 [28] was greater than 50 µM, the TGI [28] was greater than 50 µM and the GI50 [29] was greater than 50 µM. For the same molecule, the TGI [29] was greater than 50 µM, the GI50 [30] was greater than 50 µM and the TGI [30] was greater than 50 µM. For the same molecule, the GI50 [31] was greater than 50 µM, the TGI [31] was greater than 50 µM and the GI50 [32] was greater than 50 µM. For the same molecule, the TGI [32] was greater than 50 µM, the GI50 [33] was greater than 50 µM and the TGI [33] was greater than 50 µM. It also gave a GI50 [34] greater than 50 µM, a TGI [34] greater than 50 µM and a GI50 [35] greater than 50 µM. For the same molecule, the TGI [35] was greater than 50 µM, the GI50 [36] was greater than 50 µM and the TGI [36] was greater than 50 µM. It also gave a GI50 [37] greater than 50 µM, a TGI [37] greater than 50 µM and a GI50 [38] greater than 50 µM. The TGI [38] was greater than 50 µM, the GI50 [39] was greater than 50 µM and the TGI [39] was greater than 50 µM. The GI50 [40] was greater than 50 µM, the TGI [40] was greater than 50 µM and the GI50 [41] was greater than 50 µM. For the same molecule, the TGI [41] was greater than 50 µM, the GI50 [42] was greater than 50 µM and the TGI [42] was greater than 50 µM. It also gave a GI50 [43] greater than 50 µM, a TGI [43] greater than 50 µM and a GI50 [44] greater than 50 µM. For the same molecule, the TGI [44] was greater than 50 µM, the GI50 [45] was greater than 50 µM and the TGI [45] was greater than 50 µM. For the same molecule, the GI50 [46] was greater than 50 µM, the TGI [46] was greater than 50 µM and the GI50 [47] was greater than 50 µM. It also gave a TGI [47] greater than 50 µM, a GI50 [48] greater than 50 µM and a TGI [48] greater than 50 µM. It also gave a GI50 [49] greater than 50 µM, a TGI [49] greater than 50 µM and a GI50 [50] greater than 50 µM. It also gave a TGI [50] greater than 50 µM, a GI50 [51] greater than 50 µM and a TGI [51] greater than 50 µM. For the same molecule, the GI50 [52] was greater than 50 µM, the TGI [52] was greater than 50 µM and the GI50 [53] was greater than 50 µM. The TGI [53] was greater than 50 µM, the GI50 [54] was greater than 50 µM and the TGI [54] was greater than 50 µM. It also gave a GI50 [55] greater than 50 µM and a TGI [55] greater than 50 µM.

O=C(O)CNC(=O)C(CS)Cc1ccccc1 (centres undefined) showed a GI50 [1] greater than 25 µM, a TGI [1] greater than 25 µM and a GI50 [2] greater than 25 µM. For the same molecule, the TGI [2] was greater than 25 µM, the GI50 [3] was greater than 25 µM and the TGI [3] was greater than 25 µM. It also gave a GI50 [4] greater than 25 µM, a TGI [4] greater than 25 µM and a GI50 [7] greater than 25 µM. It also gave a TGI [7] greater than 25 µM, a GI50 [8] greater than 25 µM and a TGI [8] greater than 25 µM. It also gave a GI50 [9] greater than 25 µM, a TGI [9] greater than 25 µM and a GI50 [10] greater than 25 µM. It also gave a TGI [10] greater than 25 µM, a GI50 [11] greater than 25 µM and a TGI [11] greater than 25 µM. It also gave a GI50 [12] greater than 25 µM, a TGI [12] greater than 25 µM and a GI50 [13] greater than 25 µM. For the same molecule, the TGI [13] was greater than 25 µM, the GI50 [14] was greater than 25 µM and the TGI [14] was greater than 25 µM. The GI50 [15] was greater than 25 µM, the TGI [15] was greater than 25 µM and the GI50 [16] was greater than 25 µM. For the same molecule, the TGI [16] was greater than 25 µM, the GI50 [18] was greater than 25 µM and the TGI [18] was greater than 25 µM. It also gave a GI50 [19] greater than 25 µM, a TGI [19] greater than 25 µM and a GI50 [20] greater than 25 µM. For the same molecule, the TGI [20] was greater than 25 µM, the GI50 [21] was greater than 25 µM and the TGI [21] was greater than 25 µM. For the same molecule, the GI50 [22] was greater than 25 µM, the TGI [22] was greater than 25 µM and the GI50 [23] was greater than 25 µM. The TGI [23] was greater than 25 µM, the GI50 [24] was greater than 25 µM and the TGI [24] was greater than 25 µM. It also gave a GI50 [56] greater than 25 µM, a TGI [56] greater than 25 µM and a GI50 [25] greater than 25 µM. It also gave a TGI [25] greater than 25 µM, a GI50 [26] greater than 25 µM and a TGI [26] greater than 25 µM. It also gave a GI50 [27] greater than 25 µM, a TGI [27] greater than 25 µM and a GI50 [29] greater than 25 µM. It also gave a TGI [29] greater than 25 µM, a GI50 [30] of 0.79 µM and a TGI [30] greater than 25 µM. It also gave a GI50 [31] greater than 25 µM, a TGI [31] greater than 25 µM and a GI50 [32] greater than 25 µM. For the same molecule, the TGI [32] was greater than 25 µM, the GI50 [33] was greater than 25 µM and the TGI [33] was greater than 25 µM. It also gave a GI50 [34] greater than 25 µM, a TGI [34] greater than 25 µM and a GI50 [35] greater than 25 µM. For the same molecule, the TGI [35] was greater than 25 µM, the GI50 [36] was greater than 25 µM and the TGI [36] was greater than 25 µM. The GI50 [37] was greater than 25 µM, the TGI [37] was greater than 25 µM and the GI50 [38] was greater than 25 µM. It also gave a TGI [38] greater than 25 µM, a GI50 [39] greater than 25 µM and a TGI [39] greater than 25 µM. It also gave a GI50 [40] greater than 25 µM, a TGI [40] greater than 25 µM and a GI50 [41] greater than 25 µM. For the same molecule, the TGI [41] was greater than 25 µM, the GI50 [57] was greater than 25 µM and the TGI [57] was greater than 25 µM. It also gave a GI50 [42] greater than 25 µM, a TGI [42] greater than 25 µM and a GI50 [43] greater than 25 µM. It also gave a TGI [43] greater than 25 µM, a GI50 [44] greater than 25 µM and a TGI [44] greater than 25 µM. For the same molecule, the GI50 [45] was greater than 25 µM, the TGI [45] was greater than 25 µM and the GI50 [47] was greater than 25 µM. The TGI [47] was greater than 25 µM, the GI50 [48] was greater than 25 µM and the TGI [48] was greater than 25 µM. For the same molecule, the GI50 [49] was greater than 25 µM, the TGI [49] was greater than 25 µM and the GI50 [50] was greater than 25 µM. For the same molecule, the TGI [50] was greater than 25 µM, the GI50 [51] was greater than 25 µM and the TGI [51] was greater than 25 µM. For the same molecule, the GI50 [52] was greater than 25 µM, the TGI [52] was greater than 25 µM and the GI50 [53] was greater than 25 µM. It also gave a TGI [53] greater than 25 µM, a GI50 [54] greater than 25 µM and a TGI [54] greater than 25 µM. It also gave a GI50 [55] greater than 25 µM and a TGI [55] greater than 25 µM.
